Source: patent US11787780B2 (CORCEPT THERAPEUTICS INCORPORATED, priority 2020, dated 2023)

Tests used:
[1] = target: glucocorticoid receptor (GR) recombinant ligand binding domain (LBD) (Homo sapiens (Human), UniProt P04150); assay: GR binding fluorescence polarisation (FP) assay; conditions: displacement of fluorescently tagged ligand
Protocol: Binding of test compounds to the glucocorticoid receptor (GR) is determined using a fluorescence polarisation (FP) assay utilising a recombinant ligand binding domain (LBD) of GR. The test compounds are assessed by their ability to displace a fluorescently tagged ligand and detection of the resulting decrease in fluorescence polarisation.

[2] = tested on: induction of TAT by dexamethasone in HepG2 cells; assay: Hep G2 TAT assay (inhibition of dexamethasone-induced TAT); assay type: cell-based, human; conditions: challenge of 100 nM dexamethasone, IC50 converted to Ki by Cheng and Prusoff equation

glucocorticoid receptor (GR) recombinant ligand binding domain (LBD), sequence (P04150 524-758): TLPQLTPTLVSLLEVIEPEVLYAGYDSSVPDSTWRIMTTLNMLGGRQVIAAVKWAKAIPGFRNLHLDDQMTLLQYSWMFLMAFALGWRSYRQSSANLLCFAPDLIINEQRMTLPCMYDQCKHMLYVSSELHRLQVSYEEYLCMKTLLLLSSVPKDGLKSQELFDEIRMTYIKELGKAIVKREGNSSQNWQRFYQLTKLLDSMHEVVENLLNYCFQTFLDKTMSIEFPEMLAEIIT

Structure (SMILES)	IC50 [1]	Ki [2]
Cc1cc2c(cnn2-c2cc(C)c(=O)n(C)c2)cc1C1(Cc2ccccc2)CCN(S(=O)(=O)c2ccc(F)c(F)c2)C1 (stereo not drawn) [Example 271, 5-(5-(3-benzyl-1-((3,4-difluorophenyl)sulfonyl)pyrrolidin-3-yl)-6-methyl-1H-indazol-1-yl)-1,3-dimethylpyridin-2(1H)-one]	20 nM	55 nM
Cc1cc2c(cnn2-c2cnn(C)c2)cc1C1(Cc2ccccc2)CCN(S(=O)(=O)c2ccc(F)c(F)c2)C1 (stereo not drawn) [Example 272, 5-(3-benzyl-1-((3,4-difluorophenyl)sulfonyl)pyrrolidin-3-yl)-6-methyl-1-(1-methyl-1H-pyrazol-4-yl)-1H-indazole]	22 nM	29 nM
Cc1cc2c(cnn2-c2ccc(=O)n(C)c2)cc1C1(C(C)c2ccccc2)CCN(S(=O)(=O)c2cnn(C)n2)C1 (stereo not drawn) [Example 274, 1-methyl-5-(6-methyl-5-(1-((2-methyl-2H-1,2,3-triazol-4-yl)sulfonyl)-3-(1-phenylethyl)pyrrolidin-3-yl)-1H-indazol-1-yl)pyridin-2(1H)-one]	81 nM	290 nM
Cc1cc2c(cnn2-c2ccc(=O)n(C)c2)cc1C1(Cc2ccccc2)CCN(S(=O)(=O)c2cn(C)nn2)C1 (stereo not drawn) [Example 275, 5-(5-(3-benzyl-1-((1-methyl-1H-1,2,3-triazol-4-yl)sulfonyl)pyrrolidin-3-yl)-6-methyl-1H-indazol-1-yl)-1-methylpyridin-2(1H)-one]	18 nM	70 nM
Cc1cc2c(cnn2-c2ccc(=O)n(C)c2)cc1C1(Cc2ccccc2)CCN(S(=O)(=O)c2cccnc2)C1 (stereo not drawn) [Example 286, 5-(5-(3-benzyl-1-(pyridin-3-ylsulfonyl)pyrrolidin-3-yl)-6-methyl-1H-indazol-1-yl)-1-methylpyridin-2(1H)-one]	11 nM	52 nM
Cc1cc2c(cnn2-c2ccc(=O)n(C)c2)cc1C1(Cc2ccccc2)CCN(S(=O)(=O)c2ccc(F)c(F)c2)C1 (stereo not drawn) [Example 287, 5-(5-(3-benzyl-1-((3,4-difluorophenyl)sulfonyl)pyrrolidin-3-yl)-6-methyl-1H-indazol-1-yl)-1-methylpyridin-2(1H)-one]	6.7 nM	25 nM
Cc1cc2c(cnn2-c2ccc(=O)n(C)c2)cc1C1(Cc2ccccc2)CCN(S(=O)(=O)c2cn(C)c(C)n2)C1 (stereo not drawn) [Example 288]	33 nM	110 nM
Cc1cc2c(cnn2-c2ccc(=O)n(C)c2)cc1C1(Cc2ccccc2)CCN(S(=O)(=O)C2CC2)C1 (stereo not drawn) [Example 289, 5-(5-(3-benzyl-1-(cyclopropylsulfonyl)pyrrolidin-3-yl)-6-methyl-1H-indazol-1-yl)-1-methylpyridin-2(1H)-one]	13 nM	69 nM
Cc1cc2c(cnn2-c2ccc(=O)n(C)c2)cc1C1(Cc2ccccc2)CCN(S(=O)(=O)c2ccc(C(F)(F)F)nc2)C1 (stereo not drawn) [Example 292, 5-(5-(3-benzyl-1-((6-(trifluoromethyl)pyridin-3-yl)sulfonyl)pyrrolidin-3-yl)-6-methyl-1H-indazol-1-yl)-1-methylpyridin-2(1H)-one]	14 nM	110 nM
Cc1cc2c(cnn2-c2ccc(=O)n(C)c2)cc1C1(Cc2ccccc2)CCN(S(=O)(=O)c2ccnn2C)C1 (stereo not drawn) [Example 293, 5-(5-(3-benzyl-1-((1-methyl-1H-pyrazol-5-yl)sulfonyl)pyrrolidin-3-yl)-6-methyl-1H-indazol-1-yl)-1-methylpyridin-2(1H)-one]	6.1 nM	100 nM
Cc1cc2c(cnn2-c2ccc(=O)n(C)c2)cc1C1(Cc2ccccc2)CCN(S(=O)(=O)c2ccccc2)C1 (stereo not drawn) [Example 294, 5-(5-(3-benzyl-1-(phenylsulfonyl)pyrrolidin-3-yl)-6-methyl-1H-indazol-1-yl)-1-methylpyridin-2(1H)-one]	4 nM	41 nM
Cc1cc2c(cnn2-c2ccc(=O)n(C)c2)cc1C1(Cc2ccccc2)CCN(S(=O)(=O)c2cccc(C#N)c2)C1 (stereo not drawn) [Example 295, 3-((3-benzyl-3-(6-methyl-1-(1-methyl-6-oxo-1,6-dihydropyridin-3-yl)-1H-indazol-5-yl)pyrrolidin-1-yl)sulfonyl)benzonitrile]	6.3 nM	62 nM

More lines, main results first:

IC50 [1]	Structure (SMILES)	Ki [2]
87 nM	Cc1cc2c(cnn2-c2cnn(C(F)(F)F)c2)cc1C1(Cc2ccccc2)CCN(S(=O)(=O)c2cnn(C)n2)C1 (stereo not drawn) [Example 254, 5-(3-benzyl-1-((2-methyl-2H-1,2,3-triazol-4-yl)sulfonyl)pyrrolidin-3-yl)-6-methyl-1-(1-(trifluoromethyl)-1H-pyrazol-4-yl)-1H-indazole]	44 nM
27 nM	Cc1cc2c(cnn2-c2cnn(C(F)F)c2)cc1C1(Cc2ccccc2)CCN(S(=O)(=O)c2cnn(C)n2)C1 (stereo not drawn) [Example 255, 5-(3-benzyl-1-((2-methyl-2H-1,2,3-triazol-4-yl)sulfonyl)pyrrolidin-3-yl)-1-(1-(difluoromethyl)-1H-pyrazol-4-yl)-6-methyl-1H-indazole]	44 nM
52 nM	Cc1cc2c(cnn2-c2cn(C)nc2C)cc1C1(Cc2ccccc2)CCN(S(=O)(=O)c2cnn(C)n2)C1 (stereo not drawn) [Example 257, 5-(3-benzyl-1-((2-methyl-2H-1,2,3-triazol-4-yl)sulfonyl)pyrrolidin-3-yl)-1-(1,3-dimethyl-1H-pyrazol-4-yl)-6-methyl-1H-indazole]	220 nM
31 nM	CCn1cc(-n2ncc3cc(C4(Cc5ccccc5)CCN(S(=O)(=O)c5cnn(C)n5)C4)c(C)cc32)cn1 (stereo not drawn) [Example 258, 5-(3-benzyl-1-((2-methyl-2H-1,2,3-triazol-4-yl)sulfonyl)pyrrolidin-3-yl)-1-(1-ethyl-1H-pyrazol-4-yl)-6-methyl-1H-indazole]	76 nM
180 nM	Cc1cc2c(cnn2-c2ccn(C)n2)cc1C1(Cc2ccccc2)CCN(S(=O)(=O)c2cnn(C)n2)C1 (stereo not drawn) [Example 259, 5-(3-benzyl-1-((2-methyl-2H-1,2,3-triazol-4-yl)sulfonyl)pyrrolidin-3-yl)-6-methyl-1-(1-methyl-1H-pyrazol-3-yl)-1H-indazole]	540 nM
150 nM	Cc1cc2c(cnn2-c2ccnn2C)cc1C1(Cc2ccccc2)CCN(S(=O)(=O)c2cnn(C)n2)C1 (stereo not drawn) [Example 260, 5-(3-benzyl-1-((2-methyl-2H-1,2,3-triazol-4-yl)sulfonyl)pyrrolidin-3-yl)-6-methyl-1-(1-methyl-1H-pyrazol-5-yl)-1H-indazole]	350 nM
2.9 nM	[2H]C([2H])([2H])n1cc(-n2ncc3cc(C4(Cc5ccccc5)CCN(S(=O)(=O)c5cnn(C)n5)C4)c(C)cc32)ccc1=O (stereo not drawn) [Example 261, 5-(5-(3-benzyl-1-((2-methyl-2H-1,2,3-triazol-4-yl)sulfonyl)pyrrolidin-3-yl)-6-methyl-1H-indazol-1-yl)-1-(methyl-d3)pyridin-2(1H)-one]	44 nM
280 nM	Cc1cc2c(cnn2-c2cc(C3CC3)c(=O)n(C)c2)cc1C1(Cc2ccccc2)CCN(S(=O)(=O)c2cnn(C)n2)C1 (stereo not drawn) [Example 262, 5-(5-(3-benzyl-1-((2-methyl-2H-1,2,3-triazol-4-yl)sulfonyl)pyrrolidin-3-yl)-6-methyl-1H-indazol-1-yl)-3-cyclopropyl-1-methylpyridin-2(1H)-one]	190 nM
110 nM	CCc1cc(-n2ncc3cc(C4(Cc5ccccc5)CCN(S(=O)(=O)c5cnn(C)n5)C4)c(C)cc32)cn(C)c1=O (stereo not drawn) [Example 263, 5-(5-(3-benzyl-1-((2-methyl-2H-1,2,3-triazol-4-yl)sulfonyl)pyrrolidin-3-yl)-6-methyl-1H-indazol-1-yl)-3-ethyl-1-methylpyridin-2(1H)-one]	100 nM
26 nM	Cc1cc2c(cnn2-c2cnn(C3COC3)c2)cc1C1(Cc2ccccc2)CCN(S(=O)(=O)c2cnn(C)n2)C1 (stereo not drawn) [Example 264, 5-(3-benzyl-1-((2-methyl-2H-1,2,3-triazol-4-yl)sulfonyl)pyrrolidin-3-yl)-6-methyl-1-(1-(oxetan-3-yl)-1H-pyrazol-4-yl)-1H-indazole]	210 nM
16 nM	COc1cc2c(cnn2-c2ccc(=O)n(C)c2)cc1C1(Cc2ccccc2)CCN(S(=O)(=O)c2cnn(C)n2)C1 (stereo not drawn) [Example 265, 5-(5-(3-benzyl-1-((2-methyl-2H-1,2,3-triazol-4-yl)sulfonyl)pyrrolidin-3-yl)-6-methoxy-1H-indazol-1-yl)-1-methylpyridin-2(1H)-one]	120 nM
4.7 nM	Cc1cc2c(cnn2-c2ccc(=O)n(C)c2)cc1C1(Cc2ccccc2)CCN(S(=O)(=O)c2cnn(C)n2)C1 (stereo not drawn) [Example 266, 5-(5-(3-benzyl-1-((2-methyl-2H-1,2,3-triazol-4-yl)sulfonyl)pyrrolidin-3-yl)-6-methyl-1H-indazol-1-yl)-1-methylpyridin-2(1H)-one]	40 nM
5.6 nM	Cc1cc2c(cnn2-c2ccc(=O)[nH]c2)cc1C1(Cc2ccccc2)CCN(S(=O)(=O)c2cnn(C)n2)C1 (stereo not drawn) [Example 267, 5-(5-(3-benzyl-1-((2-methyl-2H-1,2,3-triazol-4-yl)sulfonyl)pyrrolidin-3-yl)-6-methyl-1H-indazol-1-yl)pyridin-2(1H)-one]	93 nM
5.4 nM	Cc1cc2c(cnn2-c2ccc(=O)n(C)c2)cc1C1(Cc2ccccc2)CCN(S(=O)(=O)c2ccn(C)n2)C1 (stereo not drawn) [Example 276, 5-(5-(3-benzyl-1-((1-methyl-1H-pyrazol-3-yl)sulfonyl)pyrrolidin-3-yl)-6-methyl-1H-indazol-1-yl)-1-methylpyridin-2(1H)-one]	52 nM
62 nM	Cc1cc2c(cnn2-c2ccc(=O)n(C)c2)cc1C1(Cc2ccccc2)CCN(S(=O)(=O)c2cn(C)cn2)C1 (stereo not drawn) [Example 290, 5-(5-(3-benzyl-1-((1-methyl-1H-imidazol-4-yl)sulfonyl)pyrrolidin-3-yl)-6-methyl-1H-indazol-1-yl)-1-methylpyridin-2(1H)-one]	200 nM
